Measured values published in PMC9142856 (Heliyon, 2022).
pIC50: −log10 of the molar value.

Target: dipeptidyl peptidase-IV (DPP-IV) (Homo sapiens, UniProt P27487)
Assay: in vitro enzyme inhibition assay, Gly-Pro-p-nitroanilide substrate
Format: biochemical

Sequence of dipeptidyl peptidase-IV (DPP-IV) (P27487 39-766): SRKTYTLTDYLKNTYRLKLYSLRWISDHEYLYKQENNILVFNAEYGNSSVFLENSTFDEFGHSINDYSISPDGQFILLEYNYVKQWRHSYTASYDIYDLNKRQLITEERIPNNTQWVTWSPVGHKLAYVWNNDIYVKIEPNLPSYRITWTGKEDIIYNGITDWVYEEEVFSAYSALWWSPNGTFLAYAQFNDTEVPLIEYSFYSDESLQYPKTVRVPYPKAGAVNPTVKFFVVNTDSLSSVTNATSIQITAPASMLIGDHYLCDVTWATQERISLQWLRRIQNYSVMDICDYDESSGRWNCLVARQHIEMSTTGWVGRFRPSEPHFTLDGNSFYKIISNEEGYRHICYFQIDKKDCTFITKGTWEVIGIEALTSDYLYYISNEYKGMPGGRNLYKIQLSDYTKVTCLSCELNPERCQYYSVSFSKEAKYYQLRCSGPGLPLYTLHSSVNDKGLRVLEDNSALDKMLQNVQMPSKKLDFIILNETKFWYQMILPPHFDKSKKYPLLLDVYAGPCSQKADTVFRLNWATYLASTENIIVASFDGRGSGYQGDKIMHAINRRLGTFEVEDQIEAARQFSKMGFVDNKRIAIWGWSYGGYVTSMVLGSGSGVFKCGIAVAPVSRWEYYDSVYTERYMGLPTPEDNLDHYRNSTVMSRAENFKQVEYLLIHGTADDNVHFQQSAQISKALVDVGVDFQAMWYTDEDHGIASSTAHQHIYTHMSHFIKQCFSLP

pIC50: 4.98
SMILES: CC(C)=CCC/C(C)=C/Cc1c(O)ccc(C(=O)/C=C/c2ccc(O)cc2)c1O [XA, xanthoangelol]
